This assay concerns MC3T3-E1 osteoblast cells. As to the kind of experiment: ECM screen: adhesion of MC3T3-E1 cells to immobilized adhesion ligands (fluorescent nuclei count). It is filed as cell-based. The following applies: "best factors" approach. The text has this: A statistical design was developed with special consideration of the surface chemistry requirements. In particular, in this experiment the scenario shown in FIG. 9 was used, wherein the overall adhesion ligand density was kept constant from well to well and only the adhesion ligand composition was allowed to change. In other words, the concentration of a single adhesion ligand could be different from well to well, but each well has the same amount of adhesion ligand immobilized overall. This scenario is further described above. An example of such design is shown in the spreadsheet in FIG. 10. The spreadsheet serves as a computer representation of the design which is stored in a database. The top row in […] lists the 10 factors […] used in this particular screen, and their corresponding identities. In the spreadsheet shown, Factor A represents fibronectin, Factor B represents Collagen I, etc. The first column is a list of the experimental points that translate into a well in the 96-well plate, e.g., 52 wells in this case. The numbers in the spreadsheet are the factor levels. In this example, these levels are the actual volumes (in μL) of factor that are added to a particular well. In this particular design, factors get added to the wells at three volumes, e.g., 5 μL, 25 μL, or 50 μL. The total well volume in this case is 50 μL. Thus, for wells where one factor is added at 50 μL, the final well composition will comprise a single adhesion ligand covalently immobilized on the well surface. Accordingly, if 25 μL of a factor is added to a well, a second factor is added at 25 μL also, and the final well composition will comprise a mixture of two different cell adhesion ligands covalently immobilized on the well surface. When 5 μL of a factor are added, nine other factors are added at 5 μL each, as well, thus resulting in wells that comprise a mixture of all 10 cell adhesion ligands on the well surface. These experimental points containing all 10 adhesion ligands are called “mid points” and are an integral part of the statistical design in this example.
With reference now to FIG. 11, a 96-well plate layout is shown, which was translated from the particular statistical design shown in FIG. 10. In particular, the 96-well plate includes the well compositions indicated in FIG. 10, e.g., cell adhesion ligand combinations immobilized at the bottom of each well. In particular, the experimental runs in FIG. 10 correspond to rows/columns in FIG. 11, as follows: runs 1-10 in the design in FIG. 10 represent row B, columns 2-11, respectively on the array in FIG. 11; runs 11-20 represent row C, columns 2-11; runs 21-30 represent row D, columns 2-11; runs 31-40 represent row E, columns 2-11; runs 41-50 represent row F, columns 2-11; and runs 51 and 52 represent row G, columns 2 and 3, respectively. As shown by the statistical design in FIG. 10 and the corresponding 96-well plate layout in FIG. 11 it is an embodiment of the present invention that, in addition to mixtures of agents, single agents can be placed in the receptacles.
Cells were removed from cell culture flasks using trypsin-EDTA according to methods well known in the art. Cells were enumerated, spun down and resuspended in media containing no serum or, alternatively, in media containing 10% fetal calf serum. Cells were plated into the wells of a 96-well microarray according to the layout shown in FIG. 11 and described in Example 3 above. The seeding density was about 10,000 cells per well. Cells were incubated on the plates overnight at 37° C. The following day, media and any cells not adhering to the immobilized agents on the well surfaces were removed. Any adhered cells were fixed by exposure to forrnalin for at least 15 minutes. Propidium iodite was used to fluorescently label the nuclei of said fixed adhered cells. […]

Where [1] appears, read: no serum, FIG. 14, deviation from mid-point reference blend.

Take laminin: the “effect on cell count (mixture-model analysis)” value (“effect on cell count” for short) runs as follows: (10% serum, FIG. 15) “positive effect on cell count”; under setting [1], “increase the cell count”.
In the case of poly-L-lysine [reference compound], the “effect on cell count” value is given as “diminishes” (10% serum, FIG. 15) and “marginal effect” under setting [1].
As to Collagen IV, the “effect on cell count” value was “positive effect on cell count” (10% serum, FIG. 15) and “increase the cell count” under setting [1].

Values taken from patent publication US20050060100A1, “Computer software and algorithms for systems biologically linked to cellular phenotype” (Becton Dickinson and Company, priority 2003, published 2005).
